Data on five compounds can be found in ChEMBL document CHEMBL1201862, “PubChem BioAssay data set” (2004).

Some test systems named below: UACC-62; HL-60; SK-OV-3; MDA-MB-231; IGROV-1; SF-539; CCRF-CEM; NCI-H460; A549; HT-29; HCC 2998; MOLT-4; EKVX; SK-MEL-2; LOX IMVI; SN12C; HOP-92.
What all share (test): NCI anticancer screen, dose series, 48 h

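Following 48 hours of exposure in 96-well plates, responses at five concentrations were used to interpolate endpoints linearly. GI50 is the concentration that inhibits growth by half.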 The source made the active and inactive calls. No stated cut-off is given here; in the data, active = GI50 up to about 1.1 µM and inactive = higher. Some results are limits rather than exact numbers.

As to `O=C(Nc1cc(C(=O)Nc2cccc(S(=O)(=O)O)c2)cc(C(=O)Nc2cccc(S(=O)(=O)O)c2)c1)c1cccc(C(=O)Nc2cc(C(=O)Nc3cccc(S(=O)(=O)O)c3)cc(C(=O)Nc3cccc(S(=O)(=O)O)c3)c2)c1`, the GI50 is > 100 µM (inactive) in the experiment with UACC-62; 17.7 µM (inactive) in the experiment on HL-60; > 100 µM (inactive) with SK-OV-3; > 100 µM (inactive) with MDA-MB-231; > 100 µM (inactive) with IGROV-1; > 100 µM (inactive) in the experiment with SF-539. The GI50 with CCRF-CEM, in the experiment on NCI-H460, in the experiment with A549, in the experiment with HT-29, in the experiment on HCC 2998 and in the experiment with MOLT-4 was > 100 µM (inactive) each time. The GI50 with EKVX, in the experiment with SK-MEL-2, in the experiment on LOX IMVI and in the experiment with SN12C was > 100 µM (inactive) throughout.

On to `CCN(CC)c1nnc(CCCCCCCCc2nnc(N(CC)CC)o2)o1`, for which the GI50 in the experiment with HL-60, with SK-OV-3, in the experiment on MDA-MB-231, in the experiment with IGROV-1, in the experiment with SF-539 and in the experiment with CCRF-CEM was > 100 µM (inactive) each time. Moreover, the GI50 in the experiment on NCI-H460, with A549, with HT-29, in the experiment on HOP-92, in the experiment on MOLT-4 and with EKVX was > 100 µM (inactive) in each case. In addition, the GI50 in the experiment on SK-MEL-2, in the experiment on LOX IMVI and in the experiment with SN12C was > 100 µM (inactive) each time.

For the compound `CCCCCCCCCCCCCP(=O)(O)NCC(N)=O`, the GI50 with UACC-62 was 52.4 µM (inactive); with HL-60, 19.7 µM (inactive); with SK-OV-3 it was > 100 µM (inactive); with IGROV-1 it was 41.2 µM (inactive); in the experiment with SF-539, 55.7 µM (inactive); with CCRF-CEM, 52.8 µM (inactive). The GI50 is > 100 µM (inactive) in the experiment on NCI-H460; > 100 µM (inactive) with A549; > 100 µM (inactive) with HT-29; 25.4 µM (inactive) with HOP-92; > 100 µM (inactive) in the experiment on HCC 2998; > 100 µM (inactive) with EKVX. The GI50 was 53.2 µM (inactive) with SK-MEL-2, 51.5 µM (inactive) in the experiment with LOX IMVI and 52.7 µM (inactive) in the experiment with SN12C.

Regarding `NC(CNO)C(=O)O` (centres undefined), the GI50 in the experiment with UACC-62 is > 100 µM (inactive); in the experiment with HL-60, 6.79 µM (inactive); in the experiment on SK-OV-3 it was > 100 µM (inactive); with MDA-MB-231, > 100 µM (inactive); in the experiment on IGROV-1, > 100 µM (inactive); in the experiment with SF-539 it was > 100 µM (inactive). Further, the GI50 with NCI-H460, in the experiment with A549, in the experiment on HT-29, in the experiment with HOP-92, with EKVX and in the experiment with SK-MEL-2 was > 100 µM (inactive) each time. The GI50 with LOX IMVI and in the experiment with SN12C was > 100 µM (inactive) in each case.

Regarding `O=C(O)CC(NC(=O)Nc1ccc([N+](=O)[O-])cc1)C(=O)Nc1ccc([N+](=O)[O-])cc1` (centres undefined), the GI50 was 0.69 µM (active) with UACC-62; > 100 µM (inactive) in the experiment on SK-OV-3; > 100 µM (inactive) in the experiment on MDA-MB-231; > 100 µM (inactive) in the experiment with IGROV-1; > 100 µM (inactive) in the experiment with SF-539; > 100 µM (inactive) in the experiment on CCRF-CEM. The GI50 in the experiment with NCI-H460, in the experiment on A549, in the experiment on HT-29, with HCC 2998, in the experiment on MOLT-4 and in the experiment with EKVX was > 100 µM (inactive) in each case. The GI50 with SK-MEL-2 and in the experiment on LOX IMVI was > 100 µM (inactive) in each case.
